Tests used:
corn [1] = assay: Test A postemergence; assay type: in vivo, Zea mays
Procedure, shortened: (§1)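 Injury scores run from 0, no effect, to 100, complete control, judged by eye against untreated plants roughly 10 days after treatment. Chemicals carried a surfactant in a non-phytotoxic solvent and went onto loam–sand soil preemergence or onto one- to two-leaf seedlings postemergence.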

Italian ryegrass = assay: Test C postemergence; assay type: in vivo, Lolium multiflorum; details: for Plant response rating, Ryegrass, Italian: Postemergence
Procedure, shortened: (§2)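 Seeds were sown in loam–sand blend and sprayed preemergence, while plants at 1- to 4-leaf stage (2–18 cm) in peat-based medium received postemergence sprays; test chemicals were formulated in a non-phytotoxic solvent with surfactant. After 13–15 days in a greenhouse, injury was rated visually against controls, 0 (no effect) to 100 (complete control).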

pigweed [2] = assay: Test C postemergence; assay type: in vivo, Amaranthus retroflexus; details: for Plant response rating, Pigweed: Postemergence
Procedure, shortened: as §2

kochia = assay: Test C postemergence; assay type: in vivo, Kochia scoparia; details: for Plant response rating, Kochia: Postemergence
Procedure, shortened: as §2

pigweed [3] = assay: Test A preemergence; assay type: in vivo, Amaranthus retroflexus; details: for Pigweed plant response rating: 500 g ai/ha
Procedure, shortened: as §1

giant foxtail = assay: Test C postemergence; assay type: in vivo, Setaria faberii; details: for Plant response rating, Foxtail, Giant: Postemergence
Procedure, shortened: as §2

velvetleaf [4] = assay: Test A preemergence; assay type: in vivo, Abutilon theophrasti; details: for Velvetleaf plant response rating: 500 g ai/ha
Procedure, shortened: as §1

johnsongrass = assay: Test C postemergence; assay type: in vivo, Sorghum halepense; details: for Plant response rating, Johnsongrass: Postemergence
Procedure, shortened: as §2

morningglory = assay: Test A postemergence; assay type: in vivo, Ipomoea spp.
Procedure, shortened: as §1

waterhemp = assay: Test C postemergence; assay type: in vivo, Amaranthus rudis; details: for Plant response rating, Waterhemp: Postemergence
Procedure, shortened: as §2

velvetleaf [5] = assay: Test A postemergence; assay type: in vivo, Abutilon theophrasti
Procedure, shortened: as §1

large (Lg) crabgrass [6] = assay: Test A preemergence; assay type: in vivo, Digitaria sanguinalis; details: for Plant response rating, Crabgrass, Large: 125 g ai/ha; for Crabgrass, Large plant response rating: 500 g ai/ha
Procedure, shortened: as §1

soybean = assay: Test C postemergence; assay type: in vivo, Glycine max; details: for Plant response rating, Soybean: Postemergence
Procedure, shortened: as §2

corn [7] = assay: Test C postemergence; assay type: in vivo, Zea mays; details: for Plant response rating, Corn: Postemergence
Procedure, shortened: as §2

barnyardgrass = assay: Test C postemergence; assay type: in vivo, Echinochloa crus-galli; details: for Plant response rating, Barnyardgrass: Postemergence
Procedure, shortened: as §2

wild oat = assay: Test C postemergence; assay type: in vivo, Avena fatua; details: for Plant response rating, Oat, Wild: Postemergence
Procedure, shortened: as §2

pigweed [8] = assay: Test A postemergence; assay type: in vivo, Amaranthus retroflexus
Procedure, shortened: as §1

large (Lg) crabgrass [9] = assay: Test A postemergence; assay type: in vivo, Digitaria sanguinalis
Procedure, shortened: as §1

[10] = 125 g ai/ha, 0 to 100 scale where 0 is no effect and 100 is complete control
[11] = 500 g ai/ha, 0 to 100 scale, 0 no effect, 100 complete control
[12] = 31 g ai/ha, scale 0 to 100 (0 no effect, 100 complete control), 13 to 15 days
[13] = 62 g ai/ha, scale 0 to 100 (0 no effect, 100 complete control)
[14] = 0 to 100 scale, 0 no effect, 100 complete control, approx. 10 days
[15] = 0 to 100 scale where 0 is no effect and 100 is complete control
[16] = 500 g ai/ha, 0 to 100 scale where 0 is no effect and 100 is complete control
[17] = 8 g ai/ha, postemergence, 0 is no effect, 100 is complete control
[18] = 16 g ai/ha, postemergence, 0 is no effect, 100 is complete control
[19] = 31 g ai/ha, postemergence, visual rating, scale 0 to 100 (0 no effect, 100 complete control), 13 to 15 days

## N#Cc1cccc(Oc2ncc(Br)cn2)c1-n1cc(Br)cn1 [Compound 57]
Corn [1]; [10]
  Plant response rating, Corn: 30
Corn [1]; [11]
  Plant response rating, Corn: 90
Italian ryegrass; 125 g ai/ha, postemergence
  Plant response rating (0 to 100), Ryegrass, Italian: 10
Italian ryegrass; 250 g ai/ha, postemergence
  Plant response rating (0 to 100), Ryegrass, Italian: 15
Italian ryegrass; [12]
  Plant response rating, Ryegrass, Italian: 0
Italian ryegrass; [13]
  Plant response rating, Ryegrass, Italian: 5
Pigweed [2]; 250 g ai/ha, postemergence
  Plant response rating (0 to 100), Pigweed: 95
Pigweed [2]; [12]
  Plant response rating, Pigweed: 65
Pigweed [2]; [13]
  Plant response rating, Pigweed: 85
kochia; 125 g ai/ha, postemergence
  Plant response rating (0 to 100), Kochia: 90
kochia; 250 g ai/ha, postemergence
  Plant response rating (0 to 100), Kochia: 100
kochia; [12]
  Plant response rating, Kochia: 85
kochia; [13]
  Plant response rating, Kochia: 90
Pigweed [3]; [10]
  Plant response rating, Pigweed: 100
Pigweed [3]; [14]
  Pigweed plant response rating: 100
Giant foxtail; 125 g ai/ha, postemergence
  Plant response rating (0 to 100), Foxtail, Giant: 15
Giant foxtail; 250 g ai/ha, postemergence
  Plant response rating (0 to 100), Foxtail, Giant: 30
Giant foxtail; [12]
  Plant response rating, Foxtail, Giant: 10
Giant foxtail; [13]
  Plant response rating, Foxtail, Giant: 10
Velvetleaf [4]; [10]
  Plant response rating, Velvetleaf: 40
Velvetleaf [4]; [14]
  Velvetleaf plant response rating: 100
johnsongrass; 125 g ai/ha, postemergence
  Plant response rating (0 to 100), Johnsongrass: 5
johnsongrass; 250 g ai/ha, postemergence
  Plant response rating (0 to 100), Johnsongrass: 20
johnsongrass; [12]
  Plant response rating, Johnsongrass: 5
johnsongrass; [13]
  Plant response rating, Johnsongrass: 5
morningglory; [10]
  Plant response rating, Morningglory: 90
morningglory; [11]
  Plant response rating, Morningglory: 80
waterhemp; 125 g ai/ha, postemergence
  Plant response rating (0 to 100), Waterhemp: 80
waterhemp; 250 g ai/ha, postemergence
  Plant response rating (0 to 100), Waterhemp: 90
waterhemp; [12]
  Plant response rating, Waterhemp: 75
waterhemp; [13]
  Plant response rating, Waterhemp: 80
Velvetleaf [5]; [10]
  Plant response rating, Velvetleaf: 100
Velvetleaf [5]; [11]
  Plant response rating, Velvetleaf: 100
Large (Lg) crabgrass [6]; [15]
  Plant response rating, Crabgrass, Large: 90
Large (Lg) crabgrass [6]; [14]
  Crabgrass, Large plant response rating: 100
soybean; 125 g ai/ha, postemergence
  Plant response rating (0 to 100), Soybean: 95
soybean; 250 g ai/ha, postemergence
  Plant response rating (0 to 100), Soybean: 100
soybean; [12]
  Plant response rating, Soybean: 65
soybean; [13]
  Plant response rating, Soybean: 85
Corn [7]; 125 g ai/ha, postemergence
  Plant response rating (0 to 100), Corn: 20
Corn [7]; 250 g ai/ha, postemergence
  Plant response rating (0 to 100), Corn: 20
Corn [7]; [12]
  Plant response rating, Corn: 10
Corn [7]; [13]
  Plant response rating, Corn: 15
barnyardgrass; 125 g ai/ha, postemergence
  Plant response rating (0 to 100), Barnyardgrass: 10
barnyardgrass; 250 g ai/ha, postemergence
  Plant response rating (0 to 100), Barnyardgrass: 15
barnyardgrass; [12]
  Plant response rating, Barnyardgrass: 5
barnyardgrass; [13]
  Plant response rating, Barnyardgrass: 10
Wild oat; 125 g ai/ha, postemergence
  Plant response rating (0 to 100), Oat, Wild: 30
Wild oat; 250 g ai/ha, postemergence
  Plant response rating (0 to 100), Oat, Wild: 35
Wild oat; [12]
  Plant response rating, Oat, Wild: 10
Wild oat; [13]
  Plant response rating, Oat, Wild: 15
Pigweed [8]; [10]
  Plant response rating, Pigweed: 100
Pigweed [8]; [11]
  Plant response rating, Pigweed: 100
Large (Lg) crabgrass [9]; [10]
  Plant response rating, Crabgrass, Large: 90
Large (Lg) crabgrass [9]; [11]
  Plant response rating, Crabgrass, Large: 100

## O=Cc1cccc(Oc2ncc(I)cn2)c1-n1cc(Br)cn1 [Compound 172]
Corn [1]; [10]
  Corn plant response rating: 0
Corn [1]; [16]
  Plant response rating, Corn: 20
Italian ryegrass; [17]
  Plant response rating (0 to 100), Ryegrass, Italian: 0
Italian ryegrass; [18]
  Plant response rating (0 to 100), Ryegrass, Italian: 0
Italian ryegrass; [19]
  Ryegrass, Italian plant response rating: 0
Italian ryegrass; [13]
  Plant response rating, Ryegrass, Italian: 5
Pigweed [2]; [17]
  Plant response rating (0 to 100), Pigweed: 5
Pigweed [2]; [18]
  Plant response rating (0 to 100), Pigweed: 10
Pigweed [2]; [19]
  Pigweed plant response rating: 10
Pigweed [2]; [13]
  Plant response rating, Pigweed: 5
kochia; [17]
  Plant response rating (0 to 100), Kochia: 0
kochia; [18]
  Plant response rating (0 to 100), Kochia: 0
kochia; [19]
  Kochia plant response rating: 0
kochia; [13]
  Plant response rating, Kochia: 30
Pigweed [3]; 125 g ai/ha
  Pigweed plant response rating (0 to 100 scale): 0
Pigweed [3]; [15]
  Pigweed plant response rating: 50
Giant foxtail; [17]
  Plant response rating (0 to 100), Foxtail, Giant: 0
Giant foxtail; [18]
  Plant response rating (0 to 100), Foxtail, Giant: 10
Giant foxtail; [19]
  Foxtail, Giant plant response rating: 0
Giant foxtail; [13]
  Plant response rating, Foxtail, Giant: 5
Velvetleaf [4]; 125 g ai/ha
  Velvetleaf plant response rating (0 to 100 scale): 0
Velvetleaf [4]; [15]
  Velvetleaf plant response rating: 0
johnsongrass; [17]
  Plant response rating (0 to 100), Johnsongrass: 0
johnsongrass; [18]
  Plant response rating (0 to 100), Johnsongrass: 0
johnsongrass; [19]
  Johnsongrass plant response rating: 10
johnsongrass; [13]
  Plant response rating, Johnsongrass: 10
morningglory; [10]
  Morningglory plant response rating: 80
morningglory; [16]
  Plant response rating, Morningglory: 90
waterhemp; [17]
  Plant response rating (0 to 100), Waterhemp: 0
waterhemp; [18]
  Plant response rating (0 to 100), Waterhemp: 5
waterhemp; [19]
  Waterhemp plant response rating: 5
waterhemp; [13]
  Plant response rating, Waterhemp: 5
Velvetleaf [5]; [10]
  Velvetleaf plant response rating: 90
Velvetleaf [5]; [16]
  Plant response rating, Velvetleaf: 100
Large (Lg) crabgrass [6]; [15]
  Plant response rating, Crabgrass, Large: 0
  Crabgrass, Large plant response rating: 30
soybean; [17]
  Plant response rating (0 to 100), Soybean: 0
soybean; [18]
  Plant response rating (0 to 100), Soybean: 0
soybean; [19]
  Soybean plant response rating: 0
soybean; [13]
  Plant response rating, Soybean: 5
Corn [7]; [17]
  Plant response rating (0 to 100), Corn: 0
Corn [7]; [18]
  Plant response rating (0 to 100), Corn: 0
Corn [7]; [19]
  Corn plant response rating: 0
Corn [7]; [13]
  Plant response rating, Corn: 0
barnyardgrass; [17]
  Plant response rating (0 to 100), Barnyardgrass: 0
barnyardgrass; [18]
  Plant response rating (0 to 100), Barnyardgrass: 5
barnyardgrass; [19]
  Barnyardgrass plant response rating: 5
barnyardgrass; [13]
  Plant response rating, Barnyardgrass: 5
Wild oat; [17]
  Plant response rating (0 to 100), Oat, Wild: 0
Wild oat; [18]
  Plant response rating (0 to 100), Oat, Wild: 0
Wild oat; [19]
  Oat, Wild plant response rating: 0
Wild oat; [13]
  Plant response rating, Oat, Wild: 0
Pigweed [8]; [10]
  Pigweed plant response rating: 100
Pigweed [8]; [16]
  Plant response rating, Pigweed: 100
Large (Lg) crabgrass [9]; [10]
  Crabgrass, Large plant response rating: 20
Large (Lg) crabgrass [9]; [16]
  Plant response rating, Crabgrass, Large: 30

Reference: US9695155B2, “Herbicidal substituted pyrimidinyloxy benzene compounds” (E. I. DU PONT DE NEMOURS AND COMPANY, priority 2013, dated 2017)
